How the values were obtained:
H1 = H1 (Homo sapiens, UniProt P35367); assay: H1 receptor affinity (off-target); type: binding
muscarinic receptors = assay: Muscarinic receptor affinity; type: binding
[1] = tested on: healthy volunteer and clinical populations; assay: Safety and tolerability in healthy volunteer and clinical populations; type: in vivo, human
Source text: Physical Risks: Side effects are listed in the informed consent and reviewed carefully with the subject.
(§1) Pregnant or nursing women are excluded and men and women of childbearing potential use birth control.

[2] = Randomized, double-blind, placebo-controlled single oral dose escalation study (safety, tolerability, pharmacokinetics); type: in vivo, human; settings: male, human, plasma; oral administration
Source text: as §1

healthy male volunteers [3] = assay: as above; type: in vivo, human
Source text: as §1

healthy male volunteers [4] = assay: Placebo-controlled multiple oral dose study, once daily for 5 days; type: in vivo, human
Source text: as §1

[5] = biological target: cytochrome P450 3A4 (CYP3A4) (Homo sapiens, UniProt P08684); assay: Metabolism by cytochrome P450; type: in vitro ADME
any CYP enzyme = assay: CYP enzyme inhibition; type: in vitro ADME
[6] = tested on: veterans with non-remitting posttraumatic stress disorder; assay: Open label study of Compound A as adjunctive treatment to SSRI in non-remitting PTSD; type: in vivo, human
Method: The target dose is 40 mg/d, but the dose is reduced to 20 mg/d as needed due to side effects. The study medication is stored and dispensed by the TVAMC pharmacy. The baseline SSRI medication is continued throughout the 12-wks study.
Baseline Procedures and Follow-up Assessments: Subjects are assessed by the investigators or trained clinical research coordinators with telephone contacts every two weeks and the assessments (indicated in the Table below) every four weeks.
Clinician Administered PTSD Scale (CAPS; Primary Outcome): A structured clinician-administered interview is used to assess frequency and intensity of 17 symptoms of PTSD. The CAPS is further subdivided into three clusters to allow scoring for Criterion B (re-experiencing), Criterion C (avoidant behaviors) and Criterion D (hyper-arousal). […]
In addition to change scores, rates of response (≥30% decrease in CAPS) and remission ([…]) are determined Within-group effect sizes using Cohen's d for the continuous outcomes is determined. The number needed to treat (NNT) for response and remission rates is determined. […]

Mice [7] = assay: Social defeat/resident intruder paradigm, social isolation behavior; type: in vivo
Method: Mice are tested for social isolation behavior after repeated exposure (once daily for 10 days) to an aggressive resident intruder mouse in the social defeat/resident intruder paradigm as describe by Berton et al., Science (2006) 311:864-868, the contents of which are incorporated by reference. […] On the day after the last drug or vehicle treatment, the mice are placed in the open field in the presence of a resident intruder mouse and the animal's behavior recorded by videotape for 10 min. The videotapes are then scored for the total time each mouse spent during a 10 min period in specified open-field quadrants. The total time (sec) spent by mice representing each drug treatment group in the Interaction Zone in proximity to the resident intruder mouse or, in the Corner Zones, at a distance from the intruder mouse is expressed as a mean (±SEM).
In the experiment described or similarly described above, mice are subjected to exposure to an aggressive resident intruder mouse in the social defeat/resident intruder paradigm as described in Berton et al., Science (2006) 311:864-868. […] On the day after the last drug or vehicle treatment the mice are placed in the open field in the presence of a resident intruder mouse and the total time each mouse spent during a 10 min period in defined open-field quadrants in close proximity to the intruder or in isolation to the intruder is measured.

5-HT2C receptor = 5-HT2C receptor (Homo sapiens, UniProt P28335); settings: read-out: 5-HT2C Ki
Mice [8] = settings: chronic administration; Berton et al., Science (2006); cited from earlier work
[9] = chronic treatment 1 mg/kg IP, 30 d

5-HT2C receptor, sequence (P28335 33-458): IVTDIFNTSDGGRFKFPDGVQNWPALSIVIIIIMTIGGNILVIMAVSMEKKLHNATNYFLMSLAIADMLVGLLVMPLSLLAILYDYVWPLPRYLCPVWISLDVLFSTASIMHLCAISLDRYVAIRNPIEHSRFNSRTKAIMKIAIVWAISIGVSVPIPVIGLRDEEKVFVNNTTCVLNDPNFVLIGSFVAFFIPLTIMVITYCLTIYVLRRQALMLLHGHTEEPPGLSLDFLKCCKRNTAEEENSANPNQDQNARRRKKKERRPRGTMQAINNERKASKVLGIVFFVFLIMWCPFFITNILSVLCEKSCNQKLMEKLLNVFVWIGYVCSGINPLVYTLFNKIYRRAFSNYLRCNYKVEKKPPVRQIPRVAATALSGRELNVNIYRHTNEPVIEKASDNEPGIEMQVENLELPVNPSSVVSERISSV
cytochrome P450 3A4 (CYP3A4), sequence (P08684 whole entry): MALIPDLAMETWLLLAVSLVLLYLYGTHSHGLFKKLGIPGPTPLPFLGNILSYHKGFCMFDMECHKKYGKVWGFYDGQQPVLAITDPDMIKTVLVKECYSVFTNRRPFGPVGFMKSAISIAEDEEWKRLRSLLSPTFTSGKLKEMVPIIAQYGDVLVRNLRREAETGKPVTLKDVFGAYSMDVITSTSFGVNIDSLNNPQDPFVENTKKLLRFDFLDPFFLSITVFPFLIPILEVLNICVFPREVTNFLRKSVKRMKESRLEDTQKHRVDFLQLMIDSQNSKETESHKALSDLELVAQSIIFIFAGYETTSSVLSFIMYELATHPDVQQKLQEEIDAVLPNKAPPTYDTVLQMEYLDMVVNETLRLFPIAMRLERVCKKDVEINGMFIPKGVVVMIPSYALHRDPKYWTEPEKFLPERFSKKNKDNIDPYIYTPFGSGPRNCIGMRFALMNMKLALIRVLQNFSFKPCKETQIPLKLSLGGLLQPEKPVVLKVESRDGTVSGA
H1, sequence (P35367 whole entry): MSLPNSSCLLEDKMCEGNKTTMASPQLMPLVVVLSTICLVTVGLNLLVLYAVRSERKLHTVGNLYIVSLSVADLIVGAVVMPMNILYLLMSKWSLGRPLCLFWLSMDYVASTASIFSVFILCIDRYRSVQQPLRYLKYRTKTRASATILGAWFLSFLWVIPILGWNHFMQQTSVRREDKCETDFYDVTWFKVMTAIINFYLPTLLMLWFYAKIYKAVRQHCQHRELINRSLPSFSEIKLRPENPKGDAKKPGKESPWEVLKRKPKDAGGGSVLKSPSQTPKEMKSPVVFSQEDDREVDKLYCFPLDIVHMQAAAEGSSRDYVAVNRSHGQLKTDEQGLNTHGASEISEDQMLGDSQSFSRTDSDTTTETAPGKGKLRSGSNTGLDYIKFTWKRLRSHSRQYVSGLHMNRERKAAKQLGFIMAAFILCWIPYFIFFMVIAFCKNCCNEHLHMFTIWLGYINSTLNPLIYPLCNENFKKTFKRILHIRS

CN1CCN2c3c(cccc31)[C@@H]1CN(CCCC(=O)c3ccc(F)cc3)CC[C@@H]12 [Compound A]
Ki (H1): > 1000 nM | affinity for muscarinic receptors (muscarinic receptors): no affinity | severity of adverse events ([1]; headache, dizziness, postural tachycardia, dry mouth, gastrointestinal complaints, somnolence): mild to moderate | hyper-prolactinemia ([1]; human, in vivo): does not produce hyper-prolactinemia | sexual dysfunction ([1]; human, in vivo): no reports of sexual dysfunction | safety and tolerability ([1]; range of doses 1-140 mg): safe and well-tolerated | cardiovascular side effects such as postural hypotension ([1]; related to alpha 1A activity, to date): not been associated with any cardiovascular side effects | Tmax [2]: ~1 h | dose dependence of pharmacokinetics (healthy male volunteers [3]; oral administration of increasing doses): dose-proportional linear pharmacokentics | QTc (healthy male volunteers [3]; single oral doses 2.5-30.0 mg): no significant increase | changes in 12-lead ECG or 24-hour Holter-ECG (healthy male volunteers [3]; single oral doses 2.5-30.0 mg): no clinically significant changes | changes in vital signs or clinical laboratory (healthy male volunteers [3]; single oral doses 2.5-30.0 mg): no dose-related clinically relevant changes | serious adverse events (healthy male volunteers [3]; single oral doses 2.5-30.0 mg): no serious adverse events | severity of adverse events (healthy male volunteers [3]; single oral doses 2.5-30.0 mg): mild to moderate | safety and tolerability (healthy male volunteers [3]; single oral doses of 2.5, 5.0, 10.0, 20.0 and 30.0 mg): safe and tolerated | accumulation in plasma with repeated administration (healthy male volunteers [4]; Day 5 vs Day 1 pharmacokinetics): no accumulation | safety and tolerability (healthy male volunteers [4]; multiple oral doses of 5, 10 and 20 mg once daily for 5 days): safe and well tolerated | metabolizing enzyme [5]: metabolized predominantly by cytochrome P450 3A4 (CYP3A4) | CYP inhibition (any CYP enzyme): not a potent inhibitor | efficacy for treatment of PTSD ([6]; adjunctive to SSRI, 12 weeks): effective | change in rating scale scores (CAPS, QIDS-SR, CGI-I, PANSS, SDS) ([6]; baseline to end of 12-week treatment, 20-40 mg/d adjunctive to SSRI): significant decline | time spent in the Interaction Zone, treatment alone (Mice [7]; 1 mg/kg IP once daily for 30 d, no defeat, compared with untreated control mice): did not result in differences | time spent in proximity to the intruder after exposure to the intruder paradigm (Mice [7]; 1 mg/kg IP once daily for 30 d, compared with Compound A alone): no significant reduction | effect on social defeat behavior (Mice [7]; [9]): reversal of social defeat behavior | functional anti-depressant activity (Mice [7]; [9]): has functional anti-depressant activity | Ki (5-HT2C receptor): 173 nM

CNCCC(Oc1ccc(C(F)(F)F)cc1)c1ccccc1 (stereo not drawn) [fluoxetine]
isolation behavior in social defeat/resident intruder model (Mice [8]): reversed

— patent publication US12624037B2, “Method of treating agitation, aggressive behavior, and impulse control disorder” (INTRA-CELLULAR THERAPIES, INC., priority 2012, dated 2026)
